Experimental data as given in ChEMBL document CHEMBL4406909, “Synthesis and evaluation of 1,3,5-triazine derivatives as sunscreens useful to prevent skin cancer” (Bioorg Med Chem Lett, 2019).

Tests used:
[1] = Photoprotection activity against UV radiation assessed as ratio of UVA to UVB
[2] = Antioxidant activity assessed as DPPH free radical scavenging activity at 400 uM incubated for 60 mins by spectrophotometric method relative to control; format: functional
[3] = Antioxidant activity assessed as DPPH free radical scavenging activity at 300 uM incubated for 60 mins by spectrophotometric method relative to control; format: functional
[4] = Antioxidant activity assessed as DPPH free radical scavenging activity at 200 uM incubated for 60 mins by spectrophotometric method relative to control; format: functional
[5] = Antioxidant activity assessed as DPPH free radical scavenging activity at 100 uM incubated for 60 mins by spectrophotometric method relative to control; format: functional
[6] = Thermal stability of compound in DMSO/methanol assessed as onset temperature by UV spectroscopic method; format: physicochemical
[7] = Thermal stability of compound in DMSO/methanol assessed as decomposition temperature by UV spectroscopic method; format: physicochemical
[8] = Thermal stability of compound in DMSO/methanol assessed as mass loss by UV spectroscopic method; format: physicochemical; conditions: read-out: Drug degradation
[9] = Photoprotection activity against UV radiation

T [6]	T [7]	degraded [8]	SMILES	Ratio [1]	Activity [2]	Activity [3]	Activity [4]	Activity [5]	SPF [9]	UVAPF [9]
267.35 °C	272.15 °C	11.6%	O=C(N/N=C/c1ccc(Oc2nc(Oc3ccc(/C=N/NC(=O)c4ccc(O)cc4)cc3)nc(Oc3ccc(/C=N/NC(=O)c4ccc(O)cc4)cc3)n2)cc1)c1ccc(O)cc1	0.5	8.2%	6.7%	5.6%	4.4%	7	4
291.8 °C	304.87 °C	37.3%	O=C(N/N=C/c1ccc(Oc2nc(Oc3ccc(/C=N/NC(=O)c4ccc([N+](=O)[O-])cc4)cc3)nc(Oc3ccc(/C=N/NC(=O)c4ccc([N+](=O)[O-])cc4)cc3)n2)cc1)c1ccc([N+](=O)[O-])cc1	0.8	3.5%	2.7%	2.2%	0.5%	4	3
324.37 °C	326.22 °C	41.2%	CC(C)(C)c1ccc(C(=O)N/N=C/c2ccc(Oc3nc(Oc4ccc(/C=N/NC(=O)c5ccc(C(C)(C)C)cc5)cc4)nc(Oc4ccc(/C=N/NC(=O)c5ccc(C(C)(C)C)cc5)cc4)n3)cc2)cc1	0.5	5.9%	4.8%	4.3%	4%	14	7

The next lines start with the compound.

SMILES	T [6]	T [7]	degraded [8]	Ratio [1]	Activity [2]	Activity [3]	Activity [4]	Activity [5]	SPF [9]	UVAPF [9]
O=C(N/N=C/c1ccc(Oc2nc(Oc3ccc(/C=N/NC(=O)c4ccncc4)cc3)nc(Oc3ccc(/C=N/NC(=O)c4ccncc4)cc3)n2)cc1)c1ccncc1	235.6 °C	236.25 °C	36.8%	0.4	6.1%	2.4%	0.5%	0%	5	3
O=C(N/N=C/c1ccc(Oc2nc(Oc3ccc(/C=N/NC(=O)c4ccccc4O)cc3)nc(Oc3ccc(/C=N/NC(=O)c4ccccc4O)cc3)n2)cc1)c1ccccc1O	264.89 °C	269.71 °C	19.6%	0.7	0.8%	0.3%	0%	0%	17	13
CCCCC(CC)COC(=O)c1ccc(Nc2nc(Nc3ccc(C(=O)OCC(CC)CCCC)cc3)nc(Nc3ccc(C(=O)OCC(CC)CCCC)cc3)n2)cc1 (stereo not given)	119.99 °C	232.29 °C	68.7%	0.8	3.5%	2.6%	1.6%	0%	3	3
O=C(N/N=C/c1ccc(Oc2nc(Oc3ccc(/C=N/NC(=O)c4ccc(O)cc4O)cc3)nc(Oc3ccc(/C=N/NC(=O)c4ccc(O)cc4O)cc3)n2)cc1)c1ccc(O)cc1O	218.88 °C	309.94 °C	39.8%	0.5	75.6%	75.1%	74.2%	55.3%	3	2
O=C(N/N=C/c1ccc(Oc2nc(Oc3ccc(/C=N/NC(=O)c4cccc(O)c4)cc3)nc(Oc3ccc(/C=N/NC(=O)c4cccc(O)c4)cc3)n2)cc1)c1cccc(O)c1	248.22 °C	297.87 °C	18.7%	0.4	6.3%	5.8%	4.4%	4.2%	4	2
O=C(N/N=C/c1ccc(Oc2nc(Oc3ccc(/C=N/NC(=O)c4ccccc4)cc3)nc(Oc3ccc(/C=N/NC(=O)c4ccccc4)cc3)n2)cc1)c1ccccc1	275.89 °C	294.21 °C	36.7%	0.6	2.4%	2%	1.3%	0.9%	9	5
Oc1ccc(/C=C/c2cc(O)cc(O)c2)cc1 [RESVERATROL]	263.46 °C	266.95 °C	32.9%	0.7	62.2%	56.2%	55.9%	46.8%	2	2
